In test [1] the target is T1, Bcl-xL (Homo sapiens, UniProt Q07817).
T1 construct: made in house
Put plainly: Alpha Screen Bcl-xL binding assay, competition with Bim26-mer. To be noted: values listed in the order of Table 1; read-out: Alphascreen results (IC50).

Test [2] concerns the target T1, Bcl-xL. Put plainly: TR-FRET binding assay, competition with F-Bak for Bcl-xL binding site. The conditions noted are these: GST-Bcl-xL, F-Bak probe. The procedure:
The measurement of competition of compounds of the invention with F-Bak for a Bcl-2 family protein (Bcl-xL) binding site using a Time Resolved Fluorescence Resonance Energy Transfer (TR-FRET) Binding Assay:
Test compounds were serially diluted in DMSO starting at 50 μM (2× starting concentration; 10% DMSO) and 10 μL transferred into a 384-well plate.
The samples are then mixed on a shaker for 1 minute then incubated for an additional 2 hours at room temperature. For each assay plate, a probe/antibody and protein/antibody/probe mixture were included as a negative and a positive control, respectively. Fluorescence was measured on the Envision (Perkin Elmer) using a 340/35 nm excitation filter and 520/525 (F-Bak) and 495/510 nm (Tb-labeled anti-his antibody) emission filters. Dissociation constants (Ki) were determined using Wang's equation (see, Wang, Z. X. An exact mathematical expression for describing competitive binding of two different ligands to a protein molecule. FEBS Lett. 1995 360:111-114). The TR-FRET assay can be performed in the presence of varying concentrations of human serum (HS) or fetal bovine serum (FBS).

This note sets out measurements from US9067928B2 (Genentech, Inc., priority 2008, dated 2015).

T1 sequence (Q07817 whole entry, species assumed): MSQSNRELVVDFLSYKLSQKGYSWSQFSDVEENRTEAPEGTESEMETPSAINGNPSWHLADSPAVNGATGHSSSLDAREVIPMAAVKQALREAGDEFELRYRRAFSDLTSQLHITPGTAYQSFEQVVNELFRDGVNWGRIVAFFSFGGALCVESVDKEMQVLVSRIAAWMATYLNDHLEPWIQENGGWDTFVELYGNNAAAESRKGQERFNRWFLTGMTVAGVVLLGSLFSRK

For the compound `O=C(O)c1nc(-c2ccc3c(c2)N(C(=O)Nc2nc4ccccc4s2)CCC3)sc1-c1ccc(-c2ccccc2)cc1` [Example 92, 2-(1-(benzo[d]thiazol-2-ylcarbamoyl)-1,2,3,4-tetrahydroquinolin-7-yl)-5-(biphenyl-4-yl)thiazole-4-carboxylic acid], the IC50 on Bcl-xL [1] amounted to 2 nM. The affinity on Bcl-xL [2], expressed as Ki, was 0.5 nM.
